Some results are limits rather than exact numbers.

Assay [1] deals with T1, cyclin B/CDK1 complex (Homo sapiens, UniProt P06493).
T1 construct: 6xHis (N); made in house; host or cells: Sf9 insect cells (baculovirus)
Type of assay: biochemical. To be noted: ELISA method; RB301 substrate, 100 µM ATP; Figs. 2 and 6. As for the experimental part: (§1) Clone 1C12 (specific to Thr356), clone 4E4 (specific to Ser612), and clone 2C4 (specific to Ser780) were used as the anti-phosphorylated RB monoclonal antibodies. Each anti-phosphorylated RB monoclonal antibody was diluted to a concentration of 10 µg/ml in PBS, and 100 µl of the diluted solution was added to each well of the plate followed by incubating at 4 °C for 15 hours. After removing the antibody solution, the reaction product in each well was blocked at 4°C for 24 hours in a PBS solution (5% sucrose, 0.1% NaN3) containing 2.5% of BSA. The plate was subjected to measurements after airdrying.
(§2) Cyclin D1/CDK4, cyclin A/CDK2, cyclin E/CDK2, and cyclin B/CDK1, respectively, were expressed in the sf9 cells using baculovirus, and were purified using a cobalt column and phospho-Cellulose column in order to use them as the cyclin/CDK complexes.
(§3) RB301 (10µg/ml), 100µM ATP, and respective Cyclin/CDK were added to the phosphate buffer (50 mM HEPES, 0.05% Triton X, 15 mM MgCl2, 2 mM EGTA, 200 µg/ml BSA) (final reaction volume of 180 µl), and was reacted for 30 minutes at 30°C. The reaction was stopped by adding 180 µl of PBS (10% skim milk, 350 mM NaCl, 50 mM EDTA) to each assay system.
(§4) After completing the phosphorylation reaction, 100 µl of each of the reaction solutions was added to the antibody sensitization plate, which was incubated at room temperature for 1 hour (primary reaction). […]
Background: An ELISA detects its analyte on a solid surface through an enzyme-linked reagent.

In assay [2] the target is T2, cyclin A/CDK2 complex (Homo sapiens, UniProt P24941).
T2 construct: 6xHis (N); made in house; host or cells: Sf9 insect cells (baculovirus)
Description: ELISA method, inhibitory effect on cyclin A/CDK2 complex. Format: biochemical. Conditions: RB301 substrate, 100 µM ATP, Figs. 3 and 7. As for the experimental part: as §1, §2, §3, §4

The target of assay [3] is T3, cyclin E/CDK2 complex (Homo sapiens, UniProt P24941).
T3 construct: 6xHis (N); made in house; host or cells: Sf9 insect cells (baculovirus)
Nature of the assay: ELISA method, inhibitory effect on cyclin E/CDK2 complex. Format: biochemical. Conditions: RB301 substrate, 100 µM ATP, Figs. 4 and 8. As for the experimental part:
as §1, §2, §3, §4

Assay [4] concerns the target T4, cyclin D1/CDK4 complex (Homo sapiens, UniProt P11802).
T4 construct: 6xHis (N); made in house; host or cells: Sf9 insect cells (baculovirus)
Nature of the assay: ELISA method, inhibitory effect on cyclin D1/CDK4 complex. Type of assay: biochemical. To be noted: for OD levels (inhibitory effect): RB301 substrate, 100 µM ATP, Figs. 5 and 9. The procedure:
as §1
The RB amino acid sequence 301aa-928aa was expressed as a GST fusion protein in Escherichia coli, and the protein (RB301) purified using glutathione Sepharose and phosho-Cellulose columns (P11) was used as the substrate. Cyclin D1/CDK4, cyclin A/CDK2, cyclin E/CDK2, and cyclin B/CDK1, respectively, were expressed in the sf9 cells using baculovirus, and were purified using a cobalt column and phospho-Cellulose column in order to use them as the cyclin/CDK complexes.
as §3
After completing the phosphorylation reaction, 100 µl of each of the reaction solutions was added to the antibody sensitization plate, which was incubated at room temperature for 1 hour (primary reaction). After washing with PBS [washing solution: PBS (500 mM NaCl, 0.1% Tween 20)] five times using a wash-bottle, 100 µl of anti-GST polyclonal antibody solution (0.5 µg/ml) was added to each well of the microplate, followed by incubation at room temperature for 1 hour (secondary reaction). After washing with PBS [washing solution: PBS (500 mM NaCl, 0.1% Tween 20)] five times using a wash-bottle, 100 µl of HRP labeled anti-rabbit IgG antibody solution (20,000-fold dilution) was added to each well of the microplate, followed by incubation at room temperature for 30 minutes (tertiary reaction). Then, the reaction solution was colored (coloring reaction) at room temperature for 30 minutes using TMB (tetramethylbentidine).

Assay [5] addresses PKC. To be noted: against PKC; nominal value of commercially available reagent; cited from earlier work.
Assay [6] deals with T5, CDK4 (Homo sapiens, UniProt P11802). To be noted: reported in the literature (Meijer et al. 1997); cited from earlier work.
For assay [7], the system named is MEK. Conditions: inhibitor to MEK; nominal value of commercially available reagent; cited from earlier work.
Assay [8] concerns the target cdk2 (Homo sapiens, UniProt P24941). To be noted: against CDK2; nominal value; cited from earlier work.
The target of assay [9] is T5, CDK4. Conditions: against CDK4; nominal value; cited from earlier work.

T4 sequence (P11802 whole entry): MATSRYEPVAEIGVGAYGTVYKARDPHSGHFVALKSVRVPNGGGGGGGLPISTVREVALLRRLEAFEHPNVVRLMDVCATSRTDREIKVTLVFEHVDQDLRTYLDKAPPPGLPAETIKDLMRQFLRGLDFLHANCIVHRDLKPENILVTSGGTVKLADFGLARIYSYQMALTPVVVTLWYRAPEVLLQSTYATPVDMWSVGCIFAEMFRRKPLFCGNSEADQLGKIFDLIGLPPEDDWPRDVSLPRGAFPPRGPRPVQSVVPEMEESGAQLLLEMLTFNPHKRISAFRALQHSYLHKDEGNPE
T4 sequence (P24385 whole entry partner): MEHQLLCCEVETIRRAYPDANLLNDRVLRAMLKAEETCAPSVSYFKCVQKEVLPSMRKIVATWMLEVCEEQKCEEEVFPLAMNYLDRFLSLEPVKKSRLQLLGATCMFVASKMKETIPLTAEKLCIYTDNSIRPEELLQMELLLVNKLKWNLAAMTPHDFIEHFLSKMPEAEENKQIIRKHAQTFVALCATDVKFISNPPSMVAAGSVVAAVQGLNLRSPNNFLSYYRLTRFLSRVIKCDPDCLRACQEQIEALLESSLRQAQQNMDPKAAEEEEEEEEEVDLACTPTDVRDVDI
T5 sequence (P11802 whole entry, species assumed): as the sequence (P11802 whole entry) above
T5 sequence (P24385 whole entry partner, species assumed): as the sequence (P24385 whole entry partner) above
T1 sequence (P06493 whole entry): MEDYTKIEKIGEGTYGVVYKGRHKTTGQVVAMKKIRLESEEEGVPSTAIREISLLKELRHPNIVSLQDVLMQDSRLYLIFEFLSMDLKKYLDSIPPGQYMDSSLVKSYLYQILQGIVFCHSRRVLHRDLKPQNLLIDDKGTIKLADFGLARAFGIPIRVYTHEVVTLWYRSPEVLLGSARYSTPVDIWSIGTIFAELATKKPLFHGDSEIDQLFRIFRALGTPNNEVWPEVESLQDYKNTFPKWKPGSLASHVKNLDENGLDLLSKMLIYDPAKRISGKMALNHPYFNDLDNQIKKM
T1 sequence (P14635 whole entry partner): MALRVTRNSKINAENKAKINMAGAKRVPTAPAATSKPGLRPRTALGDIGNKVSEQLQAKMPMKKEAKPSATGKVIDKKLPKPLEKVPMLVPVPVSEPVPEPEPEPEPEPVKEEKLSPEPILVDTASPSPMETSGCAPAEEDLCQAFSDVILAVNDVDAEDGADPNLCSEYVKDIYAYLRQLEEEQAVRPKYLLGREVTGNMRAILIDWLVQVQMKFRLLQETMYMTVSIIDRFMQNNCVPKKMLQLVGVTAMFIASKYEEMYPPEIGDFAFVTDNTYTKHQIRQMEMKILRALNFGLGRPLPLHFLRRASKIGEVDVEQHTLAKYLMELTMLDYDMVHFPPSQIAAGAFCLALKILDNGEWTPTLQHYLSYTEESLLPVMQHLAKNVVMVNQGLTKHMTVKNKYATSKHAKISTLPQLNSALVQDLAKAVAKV

For orientation: Ki means a dissociation constant, usually derived from enzyme kinetics or from competition with a known ligand. For the compound `COC(=O)[C@@]1(O)C[C@H]2O[C@]1(C)n1c3ccccc3c3c4c(c5c6ccccc6n2c5c31)C(=O)NC4` [K252a], the “OD levels (inhibitory effect)” value in assay [1], in assay [2], in assay [3] and in [4] was “decreased in a inhibitor concentration-dependent manner” throughout. The Ki in assay [5] is 25 nM.
Turning to `CC[C@H](CO)Nc1nc(NCc2ccccc2)c2ncn(C(C)C)c2n1` [Roscovitine], in [4], the “inhibitory effect on cyclin D1/CDK4 compared with the other three cyclin/CDK complexes” value is recorded as “weaker than those on the other three cyclin/CDK complexes” and the “OD levels (inhibitory effect)” value is reported as “decreased in a inhibitor concentration-dependent manner”. For the same compound, the “inhibitory effect on cdk4” value in [6] is “remarkably weak inhibitory effect”.
`Cn1cnc2nc(NCCO)nc(NCc3ccccc3)c21` [Olomoucine-isomer]: the “OD levels (inhibitory effect)” value in assay [4] was “almost no decrease in the OD value”.
The term IC50 denotes the concentration that inhibits the measured activity by half. Turning to `N#CC(=C(/N)Sc1ccccc1N)/C(C#N)=C(\N)Sc1ccccc1N` [U0126], the “OD levels (inhibitory effect)” value in assay [2], in [3] and in assay [4] was “almost no decrease in the OD value” each time. The half-maximal inhibitory concentration (IC50) is 55 nM in assay [7], greater than 10 µM in assay [8] and greater than 10 µM in [9].

These data come from EP1207395A1, “METHOD FOR MEASURING KINASE ACTIVITY OF CYCLIN/CDK COMPLEX” (Medical & Biological Laboratories Co., Ltd., priority 1999, dated 2001).
